Source: article PMC11345841, “Exploring 2-Sulfonylpyrimidine Warheads as Acrylamide Surrogates for Targeted Covalent Inhibition: A BTK Story” (Journal of Medicinal Chemistry, 2024)
Like-named read-outs stand apart in the source and are kept apart here.

What was measured:
ABL1-nonphosphorylated = target: T1, ABL1-nonphosphorylated (Homo sapiens, UniProt P00519); experiment: KINOMEscan ScanTK; type: binding
T1 construct: purchased Eurofins DiscoverX KINOMEscan (scanTK)

[1] = target: T2, ABL1(F317I)-nonphosphorylated (Homo sapiens, UniProt P00519, F317I); experiment: KINOMEscan ScanTK; type: binding
T2 construct: purchased Eurofins DiscoverX KINOMEscan (scanTK)

CSK = target: T3, CSK (Homo sapiens, UniProt P41240); experiment: KINOMEscan ScanTK; type: binding
T3 construct: purchased Eurofins DiscoverX KINOMEscan (scanTK)

[2] = target: T4, ABL1(F317L)-phosphorylated (Homo sapiens, UniProt P00519, F317L); experiment: KINOMEscan ScanTK; type: binding
T4 construct: purchased Eurofins DiscoverX KINOMEscan (scanTK)

ALK = target: T5, ALK (Homo sapiens, UniProt Q9UM73); experiment: KINOMEscan ScanTK; type: binding
T5 construct: purchased Eurofins DiscoverX KINOMEscan (scanTK)

BTK, full length (2–659) = BTK, full length (2–659) (Homo sapiens, UniProt Q06187); experiment: PhosphoSens enzymatic IC50 (AssayQuant); type: biochemical; conditions: for IC50: 1 nM BTK, 1.0 mM ATP
Excerpt: (§1) Biochemical enzymatic IC50 data were generated by AssayQuant Technologies (Marlborough, MA) using the PhosphoSens Platform. […] Reaction rate versus log [inhibitor concentration] data were fitted to the four-parameter logistic equation [drawing 1]

[3] = target: T6, EGFR, cytoplasmic domain (669–1210) (Homo sapiens, UniProt P00533); experiment: PhosphoSens enzymatic IC50 (AssayQuant); type: biochemical; conditions: no preincubation
T6 construct: GST (N); purchased Carna Biosciences
Excerpt: as §1

EPHA1 = target: T7, EPHA1 (Homo sapiens, UniProt P21709); experiment: KINOMEscan ScanTK; type: binding
T7 construct: purchased Eurofins DiscoverX KINOMEscan (scanTK)
T7 sequence (P21709 26-976): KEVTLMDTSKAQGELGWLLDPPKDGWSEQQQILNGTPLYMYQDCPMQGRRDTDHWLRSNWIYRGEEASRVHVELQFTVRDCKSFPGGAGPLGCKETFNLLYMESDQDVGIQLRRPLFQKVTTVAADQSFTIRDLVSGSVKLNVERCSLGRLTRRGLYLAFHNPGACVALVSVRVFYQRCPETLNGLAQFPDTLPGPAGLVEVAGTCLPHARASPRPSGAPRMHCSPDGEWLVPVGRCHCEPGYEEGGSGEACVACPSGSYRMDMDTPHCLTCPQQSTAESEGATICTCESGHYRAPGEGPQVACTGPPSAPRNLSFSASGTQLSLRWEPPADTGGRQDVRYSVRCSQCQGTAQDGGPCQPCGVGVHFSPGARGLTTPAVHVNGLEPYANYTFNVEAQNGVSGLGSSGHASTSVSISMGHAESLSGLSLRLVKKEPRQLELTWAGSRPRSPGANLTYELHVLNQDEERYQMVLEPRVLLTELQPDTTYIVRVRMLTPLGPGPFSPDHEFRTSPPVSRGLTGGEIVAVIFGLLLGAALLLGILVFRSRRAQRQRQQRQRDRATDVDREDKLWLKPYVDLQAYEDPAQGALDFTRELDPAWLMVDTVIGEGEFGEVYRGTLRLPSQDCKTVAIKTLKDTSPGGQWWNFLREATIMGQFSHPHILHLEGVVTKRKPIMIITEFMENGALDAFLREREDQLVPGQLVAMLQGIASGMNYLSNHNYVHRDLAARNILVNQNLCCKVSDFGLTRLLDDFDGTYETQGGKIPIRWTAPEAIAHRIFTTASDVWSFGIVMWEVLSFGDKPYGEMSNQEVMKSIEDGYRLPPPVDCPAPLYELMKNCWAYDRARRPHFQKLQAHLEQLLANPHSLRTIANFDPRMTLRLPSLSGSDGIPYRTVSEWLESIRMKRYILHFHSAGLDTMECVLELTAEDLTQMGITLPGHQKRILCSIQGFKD

KIT(V559D,T670I) = target: T8, KIT(V559D,T670I) (Homo sapiens, UniProt P10721, T670I/V559D); experiment: KINOMEscan ScanTK; type: binding
T8 construct: purchased Eurofins DiscoverX KINOMEscan (scanTK)

FLT3(N841I) = target: T9, FLT3(N841I) (Homo sapiens, UniProt P36888, N841I); experiment: KINOMEscan ScanTK; type: binding
T9 construct: purchased Eurofins DiscoverX KINOMEscan (scanTK)
T9 sequence (P36888 27-993 N841I): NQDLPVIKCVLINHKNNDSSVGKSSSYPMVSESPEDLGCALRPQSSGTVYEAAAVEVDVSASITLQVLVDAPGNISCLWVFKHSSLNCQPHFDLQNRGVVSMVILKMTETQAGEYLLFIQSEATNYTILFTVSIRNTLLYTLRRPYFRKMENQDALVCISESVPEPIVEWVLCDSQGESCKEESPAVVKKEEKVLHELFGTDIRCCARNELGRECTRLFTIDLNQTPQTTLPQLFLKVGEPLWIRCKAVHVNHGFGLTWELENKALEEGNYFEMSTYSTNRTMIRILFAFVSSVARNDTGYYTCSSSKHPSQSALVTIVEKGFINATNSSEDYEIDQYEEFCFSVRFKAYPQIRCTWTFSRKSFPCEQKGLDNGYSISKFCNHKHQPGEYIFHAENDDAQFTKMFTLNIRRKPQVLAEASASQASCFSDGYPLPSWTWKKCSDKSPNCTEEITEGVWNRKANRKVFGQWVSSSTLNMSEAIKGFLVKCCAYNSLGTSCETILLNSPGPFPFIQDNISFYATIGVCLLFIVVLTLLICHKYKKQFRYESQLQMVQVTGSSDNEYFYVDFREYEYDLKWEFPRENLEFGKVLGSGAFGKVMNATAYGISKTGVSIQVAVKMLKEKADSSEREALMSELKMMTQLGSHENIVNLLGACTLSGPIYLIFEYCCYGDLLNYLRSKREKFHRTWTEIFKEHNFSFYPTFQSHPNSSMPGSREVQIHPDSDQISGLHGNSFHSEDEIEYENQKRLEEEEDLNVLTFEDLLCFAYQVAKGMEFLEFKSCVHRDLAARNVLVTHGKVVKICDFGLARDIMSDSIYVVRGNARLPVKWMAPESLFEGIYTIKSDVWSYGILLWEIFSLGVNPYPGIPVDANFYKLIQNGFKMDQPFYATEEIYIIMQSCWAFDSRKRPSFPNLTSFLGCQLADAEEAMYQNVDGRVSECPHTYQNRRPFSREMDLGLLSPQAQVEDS

FYN = target: T10, FYN (Homo sapiens, UniProt P06241); experiment: KINOMEscan ScanTK; type: binding
T10 construct: purchased Eurofins DiscoverX KINOMEscan (scanTK)
T10 sequence (P06241 whole entry): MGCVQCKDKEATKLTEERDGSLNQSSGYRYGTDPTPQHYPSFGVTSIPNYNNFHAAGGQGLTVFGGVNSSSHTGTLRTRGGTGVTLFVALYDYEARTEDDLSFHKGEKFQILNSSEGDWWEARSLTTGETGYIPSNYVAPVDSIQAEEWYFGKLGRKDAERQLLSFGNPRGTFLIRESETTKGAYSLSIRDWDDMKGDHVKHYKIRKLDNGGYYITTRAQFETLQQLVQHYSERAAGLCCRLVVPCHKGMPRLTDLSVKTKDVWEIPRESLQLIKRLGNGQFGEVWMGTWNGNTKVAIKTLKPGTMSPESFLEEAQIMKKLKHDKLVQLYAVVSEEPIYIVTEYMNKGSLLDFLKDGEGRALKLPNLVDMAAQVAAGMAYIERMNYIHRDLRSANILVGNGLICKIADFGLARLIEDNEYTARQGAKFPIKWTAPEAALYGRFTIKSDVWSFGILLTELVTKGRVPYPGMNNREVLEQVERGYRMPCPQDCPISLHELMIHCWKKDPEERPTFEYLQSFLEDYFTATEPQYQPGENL

BTK, full length (2–659), sequence (Q06187 2-659): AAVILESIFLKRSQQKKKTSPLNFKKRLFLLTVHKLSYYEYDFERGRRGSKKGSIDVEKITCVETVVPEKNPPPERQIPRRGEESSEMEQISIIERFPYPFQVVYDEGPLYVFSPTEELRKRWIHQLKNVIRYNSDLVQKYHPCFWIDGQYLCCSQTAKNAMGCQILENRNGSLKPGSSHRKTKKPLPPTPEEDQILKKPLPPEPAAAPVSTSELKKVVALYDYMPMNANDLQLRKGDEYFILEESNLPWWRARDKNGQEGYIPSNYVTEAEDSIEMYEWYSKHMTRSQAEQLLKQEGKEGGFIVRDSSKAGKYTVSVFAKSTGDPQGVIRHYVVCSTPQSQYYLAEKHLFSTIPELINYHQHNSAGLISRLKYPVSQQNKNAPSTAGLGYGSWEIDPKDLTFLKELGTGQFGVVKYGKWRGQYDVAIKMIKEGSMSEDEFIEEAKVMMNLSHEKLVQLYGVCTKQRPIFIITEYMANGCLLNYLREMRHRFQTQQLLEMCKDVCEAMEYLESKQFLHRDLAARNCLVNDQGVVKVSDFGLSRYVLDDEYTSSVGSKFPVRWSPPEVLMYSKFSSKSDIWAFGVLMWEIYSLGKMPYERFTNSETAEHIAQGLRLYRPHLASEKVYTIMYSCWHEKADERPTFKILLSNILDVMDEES
T4 sequence (P00519 whole entry F317L): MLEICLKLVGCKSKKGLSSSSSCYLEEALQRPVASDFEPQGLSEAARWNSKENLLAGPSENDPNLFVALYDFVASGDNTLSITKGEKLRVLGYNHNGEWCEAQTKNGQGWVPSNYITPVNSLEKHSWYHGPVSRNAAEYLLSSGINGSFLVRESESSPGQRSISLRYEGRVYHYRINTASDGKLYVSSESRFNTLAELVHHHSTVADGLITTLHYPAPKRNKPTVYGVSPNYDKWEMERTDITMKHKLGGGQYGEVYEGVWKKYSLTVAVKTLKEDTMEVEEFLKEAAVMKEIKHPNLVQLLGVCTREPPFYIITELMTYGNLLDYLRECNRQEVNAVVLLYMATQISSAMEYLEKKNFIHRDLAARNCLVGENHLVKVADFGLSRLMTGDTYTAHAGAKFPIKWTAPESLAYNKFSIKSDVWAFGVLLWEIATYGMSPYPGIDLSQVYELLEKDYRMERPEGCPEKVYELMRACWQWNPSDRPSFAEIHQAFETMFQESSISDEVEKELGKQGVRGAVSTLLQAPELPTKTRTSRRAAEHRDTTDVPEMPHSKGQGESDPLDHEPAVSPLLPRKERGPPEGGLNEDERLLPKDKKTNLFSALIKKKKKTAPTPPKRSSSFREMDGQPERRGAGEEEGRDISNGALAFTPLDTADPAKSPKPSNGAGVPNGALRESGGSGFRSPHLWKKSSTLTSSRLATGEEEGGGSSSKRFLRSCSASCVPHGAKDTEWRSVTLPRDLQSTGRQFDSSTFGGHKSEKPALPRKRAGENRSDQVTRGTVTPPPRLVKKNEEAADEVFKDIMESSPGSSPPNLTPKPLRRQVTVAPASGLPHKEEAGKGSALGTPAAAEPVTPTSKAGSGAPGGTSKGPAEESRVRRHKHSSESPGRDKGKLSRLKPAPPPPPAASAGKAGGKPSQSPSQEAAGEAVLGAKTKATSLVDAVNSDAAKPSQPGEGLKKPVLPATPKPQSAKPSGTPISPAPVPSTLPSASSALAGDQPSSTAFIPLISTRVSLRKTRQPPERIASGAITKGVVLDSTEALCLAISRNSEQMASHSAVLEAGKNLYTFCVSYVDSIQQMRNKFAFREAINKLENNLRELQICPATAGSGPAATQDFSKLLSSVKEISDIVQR
T8 sequence (P10721 26-976 V559D/T670I): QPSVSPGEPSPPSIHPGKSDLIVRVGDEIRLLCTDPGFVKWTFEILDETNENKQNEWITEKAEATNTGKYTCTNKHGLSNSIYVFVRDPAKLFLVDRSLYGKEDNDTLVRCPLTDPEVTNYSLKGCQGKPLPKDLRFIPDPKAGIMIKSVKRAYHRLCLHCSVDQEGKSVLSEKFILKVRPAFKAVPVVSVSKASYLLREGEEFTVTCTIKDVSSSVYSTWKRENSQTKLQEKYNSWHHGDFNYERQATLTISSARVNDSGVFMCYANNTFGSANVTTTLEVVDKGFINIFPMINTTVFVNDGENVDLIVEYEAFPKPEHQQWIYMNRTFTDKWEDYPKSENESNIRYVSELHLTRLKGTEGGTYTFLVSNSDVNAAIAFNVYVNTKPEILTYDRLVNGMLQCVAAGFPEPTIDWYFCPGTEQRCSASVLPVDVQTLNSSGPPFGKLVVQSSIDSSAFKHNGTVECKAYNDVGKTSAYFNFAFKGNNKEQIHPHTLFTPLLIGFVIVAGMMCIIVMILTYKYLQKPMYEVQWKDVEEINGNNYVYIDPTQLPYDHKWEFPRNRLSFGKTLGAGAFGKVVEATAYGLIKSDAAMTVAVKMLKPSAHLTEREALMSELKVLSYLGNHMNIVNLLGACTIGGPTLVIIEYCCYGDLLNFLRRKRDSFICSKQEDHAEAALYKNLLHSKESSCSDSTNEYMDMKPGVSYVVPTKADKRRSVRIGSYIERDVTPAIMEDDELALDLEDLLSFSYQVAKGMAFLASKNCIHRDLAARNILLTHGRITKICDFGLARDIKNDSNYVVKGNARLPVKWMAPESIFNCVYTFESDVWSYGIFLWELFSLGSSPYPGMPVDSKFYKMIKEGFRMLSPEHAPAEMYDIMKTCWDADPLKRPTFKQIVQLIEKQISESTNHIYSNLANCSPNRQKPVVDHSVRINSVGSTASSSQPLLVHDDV
T1 sequence (P00519 whole entry): as the sequence (P00519 whole entry F317L) above, with L317F counted along it
T2 sequence (P00519 whole entry F317I): as the sequence (P00519 whole entry F317L) above, with L317I counted along it
T3 sequence (P41240 whole entry): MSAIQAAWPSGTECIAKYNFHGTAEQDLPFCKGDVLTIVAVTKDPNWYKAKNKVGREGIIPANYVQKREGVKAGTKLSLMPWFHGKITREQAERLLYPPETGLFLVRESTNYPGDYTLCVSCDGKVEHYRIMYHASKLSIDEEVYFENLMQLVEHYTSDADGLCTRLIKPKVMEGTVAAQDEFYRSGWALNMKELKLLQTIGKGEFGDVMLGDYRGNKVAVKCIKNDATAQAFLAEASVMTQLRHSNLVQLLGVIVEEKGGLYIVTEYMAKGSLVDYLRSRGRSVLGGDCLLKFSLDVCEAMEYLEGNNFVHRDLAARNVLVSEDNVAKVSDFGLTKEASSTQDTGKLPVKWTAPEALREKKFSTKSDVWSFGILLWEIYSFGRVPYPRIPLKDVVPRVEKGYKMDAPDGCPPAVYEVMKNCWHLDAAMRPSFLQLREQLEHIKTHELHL
T6 sequence (P00533 669-1210): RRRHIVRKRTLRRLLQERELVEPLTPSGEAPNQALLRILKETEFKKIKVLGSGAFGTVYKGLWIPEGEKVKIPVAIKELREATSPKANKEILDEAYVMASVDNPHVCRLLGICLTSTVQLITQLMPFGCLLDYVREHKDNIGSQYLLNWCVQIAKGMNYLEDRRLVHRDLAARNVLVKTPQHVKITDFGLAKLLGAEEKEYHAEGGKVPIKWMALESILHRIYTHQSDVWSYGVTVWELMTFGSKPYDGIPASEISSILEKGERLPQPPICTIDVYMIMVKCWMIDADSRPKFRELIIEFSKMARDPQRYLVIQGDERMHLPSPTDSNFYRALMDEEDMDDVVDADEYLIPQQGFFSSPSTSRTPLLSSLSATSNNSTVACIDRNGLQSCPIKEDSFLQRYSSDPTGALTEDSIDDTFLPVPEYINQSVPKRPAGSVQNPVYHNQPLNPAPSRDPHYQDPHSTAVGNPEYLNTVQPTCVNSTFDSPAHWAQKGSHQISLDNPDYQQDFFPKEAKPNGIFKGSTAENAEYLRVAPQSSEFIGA

Question: Which results are given for CNC(=O)c1cnc(S(C)(=O)=O)nc1N1CCCC(n2nc(-c3ccc(Oc4ccccc4)cc3)c3c(N)ncnc32)C1 (centres unmarked) [Compound 8d, 4-(3-(4-Amino-3-(4-phenoxyphenyl)-1H-pyrazolo[3,4-d]pyrimidin-1-yl)piperidin-1-yl)-N-methyl-2-(methylsulfonyl)pyrimidine-5-carboxamide]?
Answer: difference in %Control from reference compound Ib at 1 µM (ABL1-nonphosphorylated; @1000nM): 24.5%; remaining binding at 1 µM (ABL1-nonphosphorylated; @1000nM, read-out: %Control): 33%; remaining binding at 1 µM (ABL1-nonphosphorylated; read-out: %Control @1000nM): 33%; difference in %Control versus compound Ib at 1 µM ([1]; @1000nM): 33%; remaining binding at 1 µM ([1]; @1000nM, read-out: %Control): 85%; remaining binding at 1 µM ([1]; read-out: %Control @1000nM): 85%; difference in %Control from reference compound Ib at 1 µM (CSK; @1000nM): 3.6%; remaining binding at 1 µM (CSK; @1000nM, read-out: %Control): 8.1%; remaining binding at 1 µM (CSK; read-out: %Control @1000nM): 8.1%; difference in %Control from compound Ib at 1 µM ([2]; @1000nM): 39%; remaining binding at 1 µM ([2]; @1000nM, read-out: %Control): 76%; remaining binding at 1 µM ([2]; read-out: %Control @1000nM): 76%; difference in %Control versus compound Ib at 1 µM (ALK; @1000nM): -11%; remaining binding at 1 µM (ALK; @1000nM, read-out: %Control): 83%; remaining binding at 1 µM (ALK; read-out: %Control @1000nM): 83%; IC50 (BTK, full length (2–659); 0 min preincubation IC50 (nM), 0 min preincubation): 3.6 nM; IC50 (BTK, full length (2–659); 60 min preincubation IC50 (nM), 60 min preincubation): 1.2 nM; fold change, 1 nM BTK (BTK, full length (2–659); IC50 0 min vs 60 min preincubation): 3.1; 0 min IC50 (nM), 3 nM EGFR [3]: none of the compounds, 8a, 8b, or 8d, exhibited measurable inhibition; IC50 [3]: > 1000 nM; difference in %Control versus compound Ib at 1 µM (EPHA1; @1000nM): -6%; remaining binding at 1 µM (EPHA1; @1000nM, read-out: %Control): 66%; remaining binding at 1 µM (EPHA1; read-out: %Control @1000nM): 66%; difference in %Control versus compound Ib at 1 µM (KIT(V559D,T670I); @1000nM): 11%; remaining binding at 1 µM (KIT(V559D,T670I); @1000nM, read-out: %Control): 79%; remaining binding at 1 µM (KIT(V559D,T670I); read-out: %Control @1000nM): 79%; difference in %Control versus compound Ib at 1 µM (FLT3(N841I); @1000nM): 37%; remaining binding at 1 µM (FLT3(N841I); @1000nM, read-out: %Control): 56%; remaining binding at 1 µM (FLT3(N841I); read-out: %Control @1000nM): 56%; difference in % of control versus compound Ib at 1 µM (FYN; @1000nM): 5.4%; remaining binding at 1 µM (FYN; @1000nM, read-out: %Control): 15%; remaining binding at 1 µM (FYN; read-out: %Control @1000nM): 15%
